The assay is described as follows: Inhibition of MCP1-induced cell migration in U937 cells expressing CCR2 by chemotaxis assay.
For orientation: IC50 means the concentration that gives 50% inhibition. Low readings indicate greater potency in that assay, high ones weaker potency in that assay. In turn, `O=C(NCc1ccccc1)Nc1ccc2[nH]ncc2c1` [1-benzyl-3-(1H-indazol-5-yl)urea] displayed an IC50 greater than 100 µM.

In turn, `c1ccc(CN2CCCC(Oc3ccc4[nH]ncc4c3)C2)cc1` (stereo unspecified) [1-benzyl-3-piperidyl-(1H-5-indazolyl)ether] displayed an IC50 of 1 µM.

In turn, `c1ccc(CN2CCC(Oc3ccc4[nH]ncc4c3)CC2)cc1` [1-benzyl-4-piperidyl-(1H-5-indazolyl)ether] registered an IC50 of 6 µM.

Compound `O=C(Nc1ccc2[nH]ncc2c1)C1CCCN(Cc2ccccc2)C1` (stereo unspecified) [1-benzyl-N-(1H-indazol-5-yl)piperidine-3-carboxamide] showed an IC50 of 1 µM.

Take `Fc1ccc(CN2CCCC(Nc3ccc4[nH]ncc4c3)C2)cc1F` (stereo unspecified) [N-(1-(3,4-difluorobenzyl)piperidin-3-yl)-1H-indazol-5-amine]: the IC50 was 1 µM.

Compound `COc1cc(CN2CCCC(Nc3ccc4[nH]ncc4c3)C2)cc(OC)c1` (stereo unspecified) [N-(1-(3,5-dimethoxybenzyl)piperidin-3-yl)-1H-indazol-5-amine] gave an IC50 greater than 30 µM.

`Nc1ccc(CN2CCCC(Nc3ccc4[nH]ncc4c3)C2)cc1` (stereo unspecified) [N-(1-(4-aminobenzyl)piperidin-3-yl)-1H-indazol-5-amine] yielded an IC50 of 2 µM.

`Clc1ccc(CN2CCCC(Nc3ccc4[nH]ncc4c3)C2)cc1` (stereo unspecified) [N-(1-(4-chlorobenzyl)piperidin-3-yl)-1H-indazol-5-amine] returned an IC50 of 1 µM.

In turn, `Fc1ccc(CN2CCCC(Nc3ccc4[nH]ncc4c3)C2)cc1` (stereo unspecified) [N-(1-(4-fluorobenzyl)piperidin-3-yl)-1H-indazol-5-amine] showed an IC50 of 4 µM. This IC50 is about 4-fold higher than that of the compound before.

`COc1ccc(CN2CCCC(Nc3ccc4[nH]ncc4c3)C2)cc1` (stereo unspecified) [N-(1-(4-methoxybenzyl)piperidin-3-yl)-1H-indazol-5-amine] came in with an IC50 of 1 µM.

Compound `Cc1ccc(CN2CCCC(Nc3ccc4[nH]ncc4c3)C2)cc1` (stereo unspecified) [N-(1-(4-methylbenzyl)piperidin-3-yl)-1H-indazol-5-amine] returned an IC50 of 1 µM.

On to `O=[N+]([O-])c1ccc(CN2CCCC(Nc3ccc4[nH]ncc4c3)C2)cc1` (stereo unspecified) [N-(1-(4-nitrobenzyl)piperidin-3-yl)-1H-indazol-5-amine], for which the IC50 was found to be 19 µM.

Take `c1coc(CN2CCCC(Nc3ccc4[nH]ncc4c3)C2)c1` (stereo unspecified) [N-(1-(furan-2-ylmethyl)piperidin-3-yl)-1H-indazol-5-amine]: it took 5 µM to reach half-maximal inhibition (IC50).

`c1cc(CN2CCCC(Nc3ccc4[nH]ncc4c3)C2)ccn1` (stereo unspecified) [N-(1-(pyridin-4-ylmethyl)piperidin-3-yl)-1H-indazol-5-amine] yielded an IC50 greater than 30 µM.

`c1csc(CN2CCCC(Nc3ccc4[nH]ncc4c3)C2)c1` (stereo unspecified) [N-(1-(thiophen-2-ylmethyl)piperidin-3-yl)-1H-indazol-5-amine]: it took 6 µM to reach half-maximal inhibition (IC50).

`c1cc(CN2CCCC(Nc3ccc4[nH]ncc4c3)C2)cs1` (stereo unspecified) [N-(1-(thiophen-3-ylmethyl)piperidin-3-yl)-1H-indazol-5-amine] yielded an IC50 of 1 µM. Compared with the last compound, the IC50 is about 6-fold lower.

As for `c1ccc(CN2CCCC(Nc3ccc4[nH]ncc4c3)C2)cc1` (stereo unspecified) [N-(1-benzylpiperidin-3-yl)-1H-indazol-5-amine], half-maximal inhibition (IC50) required 2 µM.

`c1ccc(CN2CCC(Nc3ccc4[nH]ncc4c3)CC2)cc1` [N-(1-benzylpiperidin-4-yl)-1H-indazol-5-amine] displayed an IC50 of 30 µM.

Turning to `c1ccc(CN2CCC(Nc3ccc4[nH]ncc4c3)C2)cc1` (stereo unspecified) [N-(1-benzylpyrrolidin-3-yl)-1H-indazol-5-amine], half-maximal inhibition (IC50) was put at 10 µM.

Regarding `O=C(NCc1ccc(Cl)cc1Cl)Nc1ccc2[nH]ncc2c1` [N-(2,4-dichlorobenzyl)-N0-(1H-5-indazolyl)urea], the IC50 is greater than 100 µM.

Regarding `O=C(NCc1c(F)cccc1F)Nc1ccc2[nH]ncc2c1` [N-(2,6-difluorobenzyl)-N0-(1H-5-indazolyl)urea], the IC50 is greater than 100 µM.

Regarding `c1c[nH]c(CN2CCCC(Nc3ccc4[nH]ncc4c3)C2)c1` (stereo unspecified) [N-[1-(1H-2-pyrrolylmethyl)-3-piperidyl]-N-(1H-5-indazolyl)amine], the IC50 was 10 µM.

Regarding `Nc1ccccc1CN1CCCC(Nc2ccc3[nH]ncc3c2)C1` (stereo unspecified) [N-[1-(2-aminobenzyl)-3-piperidyl]-N-(1H-5-indazolyl)amine], the IC50 turned out to be 1 µM.

`Clc1ccccc1CN1CCCC(Nc2ccc3[nH]ncc3c2)C1` (stereo unspecified) [N-[1-(2-chlorobenzyl)-3-piperidyl]-N-(1H-5-indazolyl)amine] returned an IC50 of 8 µM.

The compound `Clc1ccccc1CN1CCC(Nc2ccc3[nH]ncc3c2)C1` (stereo unspecified) [N-[1-(2-chlorobenzyl)-3-pyrrolidyl]-N-(1H-5-indazolyl)amine] showed an IC50 of 7 µM.

Compound `Nc1cccc(CN2CCCC(Nc3ccc4[nH]ncc4c3)C2)c1` (stereo unspecified) [N-[1-(3-aminobenzyl)-3-piperidyl]-N-(1H-5-indazolyl)amine] displayed an IC50 of 3 µM.

In the case of `Clc1cccc(CN2CCCC(Nc3ccc4[nH]ncc4c3)C2)c1` (stereo unspecified) [N-[1-(3-chlorobenzyl)-3-piperidyl]-N-(1H-5-indazolyl)amine], half-maximal inhibition (IC50) required 8 µM. Against the preceding compound, the IC50 is about 2.7-fold higher.

In the case of `Clc1cccc(CN2CCC(Nc3ccc4[nH]ncc4c3)C2)c1` (stereo unspecified) [N-[1-(3-chlorobenzyl)-3-pyrrolidyl]-N-(1H-5-indazolyl)amine], the IC50 stood at 5 µM.

On to `O=[N+]([O-])c1cccc(CN2CCCC(Nc3ccc4[nH]ncc4c3)C2)c1` (stereo unspecified) [N-[1-(3-nitrobenzyl)-3-piperidyl]-N-(1H-5-indazolyl)amine], for which the IC50 turned out to be 19 µM.

Turning to `c1cncc(CN2CCCC(Nc3ccc4[nH]ncc4c3)C2)c1` (stereo unspecified) [N-[1-(3-pyridylmethyl)-3-piperidyl]-N-(1H-5-indazolyl)amine], 20 µM corresponded to half-maximal inhibition (IC50).

Consider `Clc1ccc(CN2CCC(Nc3ccc4[nH]ncc4c3)C2)cc1` (stereo unspecified) [N-[1-(4-chlorobenzyl)-3-pyrrolidyl]-N-(1H-5-indazolyl)amine], for which the IC50 was determined as 1 µM.

For the origin of these results see BindingDB's records for doi:10.1016/j.bmc.2006.09.052 (Kirin Brewery, 2006).
